Results reported in ChEMBL document CHEMBL5214926, “Recent contribution of medicinally active 2-aminothiophenes: A privileged scaffold for drug discovery” (Eur J Med Chem, 2022).
Converted amounts (≈) assume the structure as drawn.

Tests used:
[1] = system: Trichophyton tonsurans; test: Antifungal activity against Trichophyton tonsurans 700 assessed as fungal growth inhibition by spectrophotometry; assay type: functional
[2] = system: Trichophyton tonsurans; test: Antifungal activity against Trichophyton tonsurans 2822 assessed as fungal growth inhibition by spectrophotometry; assay type: functional
[3] = system: Trichophyton rubrum; test: Antifungal activity against Trichophyton rubrum 6753 assessed as fungal growth inhibition by spectrophotometry; assay type: functional
[4] = system: HepG2; test: Cytotoxicity against human HepG2 cells assessed as cell growth inhibition incubated for 48 hrs by MTT assay; assay type: functional, cell-based
[5] = system: NCI-H1299; test: Cytotoxicity against human NCI-H1299 cells assessed as cell growth inhibition incubated for 48 hrs by SRB assay; assay type: functional, cell-based; conditions: NCI-H1299, 48 h
[6] = system: MCF7; test: Cytotoxicity against human MCF7 cells assessed as cell growth inhibition incubated for 48 hrs by MTT assay; assay type: functional, cell-based; conditions: MCF7, 48 h
[7] = system: Staphylococcus aureus; test: Antibacterial activity against Staphylococcus aureus NCIM 2010 assessed as bacterial growth inhibition incubated for 8 hrs by absorbance based assay; assay type: functional
[8] = system: Bacillus subtilis; test: Antibacterial activity against Bacillus subtilis NCIM 2079 assessed as bacterial growth inhibition incubated for 8 hrs by absorbance based assay; assay type: functional
[9] = system: Escherichia coli; test: Antibacterial activity against Escherichia coli NCIM 2688 assessed as bacterial growth inhibition incubated for 8 hrs by absorbance based assay; assay type: functional
[10] = system: Pseudomonas aeruginosa; test: Antibacterial activity against Pseudomonas aeruginosa NCIM 2036 assessed as bacterial growth inhibition incubated for 8 hrs by absorbance based assay; assay type: functional
[11] = system: Staphylococcus aureus; test: Antibacterial activity against Staphylococcus aureus NCIM 2010 assessed as reduction in bacterial growth incubated for 8 hrs by absorbance based assay; assay type: functional, organism-based; conditions: NCIM 2010, 8 h
[12] = system: Bacillus subtilis; test: Antibacterial activity against Bacillus subtilis NCIM 2079 assessed as reduction in bacterial growth incubated for 8 hrs by absorbance based assay; assay type: functional, organism-based; conditions: NCIM 2079, 8 h
[13] = system: Staphylococcus coagulans; test: Antimicrobial activity against Staphylococcus coagulans assessed as microbial growth inhibition incubated for 24 hrs by disc diffusion assay; assay type: functional
[14] = system: Heyndrickxia coagulans; test: Antibacterial activity against Bacillus coagulans assessed as bacterial growth inhibition; assay type: functional
[15] = system: Enterococcus faecalis; test: Antibacterial activity against Enterococcus faecalis assessed as bacterial growth inhibition; assay type: functional
[16] = system: PC-3; test: Cytotoxicity against human PC-3 cells assessed as cell growth inhibition incubated for 2 days by MTT assay; assay type: functional, cell-based; conditions: PC-3, 48 h
[17] = system: HepG2; test: Cytotoxicity against human HepG2 cells assessed as cell growth inhibition incubated for 2 days by MTT assay; assay type: functional, cell-based; conditions: HepG2, 48 h
[18] = system: MCF7; test: Cytotoxicity against human MCF7 cells assessed as cell growth inhibition incubated for 2 days by MTT assay; assay type: functional, cell-based; conditions: MCF7, 48 h
[19] = system: Leishmania amazonensis; test: Anti-promastigote activity against Leishmania amazonensis (IFLA/BR/67/PH8) assessed as promastigote growth inhibition incubated for 72 hrs by microscopic analysis; assay type: functional, organism-based
[20] = system: Epidermophyton floccosum; test: Antifungal activity against Epidermophyton floccosum 6999 assessed as fungal growth inhibition by spectrophotometry; assay type: functional
[21] = system: Trichophyton mentagrophytes; test: Antifungal activity against Trichophyton mentagrophytes 5432 assessed as fungal growth inhibition by spectrophotometry; assay type: functional
[22] = Antiproliferative activity against human U-87 MG cells assessed as cell growth inhibition by MTT assay; assay type: functional, cell-based, U-87MG ATCC
[23] = system: NCI-H460; test: Antiproliferative activity against human NCI-H460 cells assessed as cell growth inhibition by MTT assay
[24] = system: MKN-45; test: Antiproliferative activity against human MKN-45 cells assessed as cell growth inhibition by MTT assay
[25] = system: SMMC-7721; test: Antiproliferative activity against human SMMC-7721 cells assessed as cell growth inhibition by MTT assay
[26] = system: A549; test: cells; conditions: Homo sapiens
Description: Antiproliferative activity against human A549 cells assessed as cell growth inhibition by MTT assay

[27] = system: HT-29; test: cells; conditions: Homo sapiens
Description: Antiproliferative activity against human HT-29 cells assessed as cell growth inhibition by MTT assay

[28] = Inhibition of CaCC (unknown origin) current potentiation; parameters: species or system Homo sapiens
[29] = system: Mycobacterium tuberculosis; test: Antimycobacterial activity against Mycobacterium tuberculosis H37Ra incubated for 8 to 12 days by XTT reduction menadione assay; assay type: functional; conditions: time 8-12 day

## N#Cc1ccsc1/N=C/c1c(Cl)cccc1Cl
[1]
  MIC: 64 µg/mL (≈ 228 µM)
[2]
  MIC: 256 µg/mL (≈ 910 µM)
[3]
  MIC: 32 µg/mL (≈ 114 µM)

## COc1cccc2c1C(=O)c1c(O)c3c(c(O)c1C2=O)C[C@@](O)(C(=O)CO)C[C@@H]3O[C@H]1C[C@H](N)[C@H](O)[C@H](C)O1 [DOXORUBICIN]
[4]; Homo sapiens, HepG2, 48 h
  IC50: 4.17 µM

## N#Cc1c(NC(=O)CN/N=C/c2cccc([N+](=O)[O-])c2)sc2c1CCCC2
[5]
  IC50: 18.5 µM

## CC(=O)c1ccc(Nc2c(C(C)=O)sc(NC(=O)CC#N)c2C#N)cc1
[4]; Homo sapiens, HepG2, 48 h
  IC50: 56.1 µM
[6]
  IC50: 41.4 µM

## CC1=C(C(=O)O)N2C(=O)[C@@H](NC(=O)[C@H](N)c3ccccc3)[C@H]2SC1 [CEPHALEXIN ANHYDROUS]
[7]
  MIC: 2.39 µg/mL (≈ 6.88 µM)
[8]
  MIC: 1.87 µg/mL (≈ 5.38 µM)
[9]
  MIC: 4.94 µg/mL (≈ 14.2 µM)
[10]
  MIC: > 10 µg/mL
[11]
  EC50: 0.77 µM
[12]
  EC50: 0.25 µM

## N#Cc1c(NC(=O)c2cc(O)c(O)c(O)c2)sc2c1CCCC2
[13]
  MIC: 0.45 µM (≈ 0.149 µg/mL)
[14]
  MIC: 0.15 µg/mL (≈ 0.454 µM)
[15]
  MIC: 0.17 µg/mL (≈ 0.515 µM)

## CC(=O)c1ccc(Nc2c(C(=O)/C=C/c3ccccc3)sc(/N=C/c3ccccc3)c2C#N)cc1
[4]; Homo sapiens, HepG2, 48 h
  IC50: 19.1 µM
[4]; hepg2
  IC50: 26.2 µM
[6]
  IC50: 19.1 µM

## CCOC(=O)c1c(NC(=O)/C=C/c2ccc(O)cc2)sc2c1CCCC2
[16]
  IC50: 6.29 µM
[17]
  IC50: 8.3 µM
[18]
  IC50: 8.27 µM

## CCOC(=O)c1c(Nc2c3ccc(Cl)cc3nc3ccc(OC)cc23)sc2c1CCCC2
[19]
  EC50: 26.6 µM
[19]; Leishmania amazonensis, IFLA/BR/67/PH8, 72 h
  EC50: 51.4 µM

## N#Cc1c(NC(=O)/C=C/c2ccc(O)cc2)sc2c1CCCC2
[16]
  IC50: 5.2 µM
[17]
  IC50: 7.9 µM
[18]
  IC50: 7.5 µM

## Cc1sc(NC(=O)c2cc(O)c(O)c(O)c2)c(C#N)c1C
[13]
  MIC: 0.49 µM (≈ 0.149 µg/mL)
[14]
  MIC: 0.15 µg/mL (≈ 0.493 µM)
[15]
  MIC: 0.25 µg/mL (≈ 0.821 µM)

## CC1(C)S[C@@H]2[C@H](NC(=O)[C@H](N)c3ccc(O)cc3)C(=O)N2[C@H]1C(=O)O [AMOXICILLIN]
[7]
  MIC: 0.29 µg/mL (≈ 0.794 µM)
[8]
  MIC: 0.32 µg/mL (≈ 0.876 µM)
[9]
  MIC: 0.32 µg/mL (≈ 0.876 µM)
[10]
  MIC: > 10 µg/mL
[11]
  EC50: 0.15 µM
[12]
  EC50: 0.15 µM

## N#Cc1ccsc1/N=C/c1c[nH]c2cccc([N+](=O)[O-])c12
[20]
  MIC: 1020 µg/mL (≈ 3460 µM)
[1]
  MIC: 128 µg/mL (≈ 432 µM)
[2]
  MIC: 512 µg/mL (≈ 1730 µM)
[3]
  MIC: 64 µg/mL (≈ 216 µM)
[21]
  MIC: 512 µg/mL (≈ 1730 µM)

## CCOC(=O)c1c(N)sc(C(=O)Nc2ccccc2)c1-c1ccccc1
[22]
  IC50: 7.42 µM
[23]
  IC50: 8.59 µM
[24]
  IC50: 8.09 µM
[25]
  IC50: 8.58 µM
[26]
  IC50: 6.8 µM
[27]
  IC50: 7.49 µM

## CC(C)(C)C1CCc2c(sc(NC(=O)C3CCCO3)c2C(=O)O)C1 (centres undefined)
[28]
  IC50: 1.7 µM

## COC(=O)c1ccsc1NC(=O)N[C@@H](C(=O)N[C@@H]1C(=O)N2[C@@H]1SC(C)(C)[C@@H]2C(=O)O)c1ccc(O)cc1
[7]
  MIC: 0.29 µg/mL (≈ 0.529 µM)
[8]
  MIC: 0.32 µg/mL (≈ 0.583 µM)
[9]
  MIC: > 10 µg/mL
[10]
  MIC: > 10 µg/mL
[29]
  MIC: > 50 µg/mL
[11]
  EC50: 0.15 µM
[12]
  EC50: 0.15 µM

## COC(=O)c1c(NC(=O)N[C@@H](C(=O)N[C@@H]2C(=O)N3[C@@H]2SC(C)(C)[C@@H]3C(=O)O)c2ccccc2)sc2c1CCCCCC2
[7]
  MIC: 0.28 µg/mL (≈ 0.455 µM)
[8]
  MIC: 2.3 µg/mL (≈ 3.74 µM)
[9]
  MIC: > 10 µg/mL
[10]
  MIC: > 10 µg/mL
[29]
  MIC: 23.3 µg/mL (≈ 37.8 µM)
[11]
  EC50: 0.15 µM
[12]
  EC50: 0.28 µM

## COC(=O)c1c(N)sc2c1CCC(C(C)(C)C)C2 (centres undefined)
[28]
  IC50: 4.6 µM

## N#Cc1ccsc1/N=C/c1cccc([N+](=O)[O-])c1
[20]
  MIC: 64 µg/mL (≈ 249 µM)
[3]
  MIC: 128 µg/mL (≈ 498 µM)

## CC(=O)c1ccc(Nc2c(C(=O)/C=C/c3ccccc3)sc(N)c2C#N)cc1
[4]; Homo sapiens, HepG2, 48 h
  IC50: 73.6 µM
[6]
  IC50: 67.5 µM

## COC(=O)c1c(NC(=O)Cn2cc(CNC34CC5CC(CC(C5)C3)C4)nn2)sc2c1CCC(C)C2 (centres undefined)
[28]
  IC50: 5.4 µM

## N#Cc1c(NC(=O)c2cc(O)c(O)c(O)c2)sc2c1CCCCC2
[13]
  MIC: 0.43 µM (≈ 0.148 µg/mL)
[14]
  MIC: 0.15 µg/mL (≈ 0.436 µM)
[15]
  MIC: 0.25 µg/mL (≈ 0.726 µM)

## COC(=O)c1ccsc1NC(=O)N[C@@H](C(=O)N[C@@H]1C(=O)N2C(C(=O)O)=C(C)CS[C@H]12)c1ccccc1
[7]
  MIC: 0.75 µg/mL (≈ 1.41 µM)
[8]
  MIC: 3.14 µg/mL (≈ 5.92 µM)
[9]
  MIC: > 10 µg/mL
[10]
  MIC: > 10 µg/mL
[29]
  MIC: > 50 µg/mL
[11]
  EC50: 0.26 µM
[12]
  EC50: 0.21 µM

## CCOC(=O)c1c(NC(=O)CC#N)sc(C(=O)Nc2ccc(Cl)cc2)c1-c1ccccc1
[22]
  IC50: 0.43 µM
[23]
  IC50: 0.43 µM
[24]
  IC50: 0.39 µM
[25]
  IC50: 0.73 µM
[26]
  IC50: 0.6 µM
[27]
  IC50: 0.62 µM
